Measured values reported in paper PMC10650955, “α-Aminophosphonate inhibitors of metallo-β-lactamases NDM-1 and VIM-2” (RSC Medicinal Chemistry, 2023).
Structures can show the parent of a compound that is named as a salt.

Columns and labels:
NDM-1 = target: T1, NDM-1 (Klebsiella pneumoniae, UniProt C7C422); assay: Dose rate inhibition studies for IC50 determination, NDM-1 enzymatic assay; format: biochemical; settings: Enzyme IC50 NDM-1, 10 nM NDM-1, 100 μM ZnCl2, imipenem substrate, inhibitor 0-800 μM, 3 parallel measurements; N.I. = no enzyme inhibitory activity observed
T1 construct: made in house
T1 sequence (C7C422 29-270 limits assumed): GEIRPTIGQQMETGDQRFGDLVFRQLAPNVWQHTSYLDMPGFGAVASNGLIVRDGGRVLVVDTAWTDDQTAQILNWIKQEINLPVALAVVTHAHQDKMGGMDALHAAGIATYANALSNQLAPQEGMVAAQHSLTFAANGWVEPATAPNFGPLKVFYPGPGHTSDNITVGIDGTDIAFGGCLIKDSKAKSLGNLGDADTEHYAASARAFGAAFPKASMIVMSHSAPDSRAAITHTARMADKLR
Procedure, shortened: (§1)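 Purified enzyme (0.1 nM VIM-2 or 10 nM NDM-1) preincubated 5 min at 25 °C with inhibitor (0-800 μM) in 50 mM HEPES pH 7.2, 100 μM ZnCl2, 2.5% DMSO, 400 μg/mL BSA. Substrate at 100 μM: nitrocefin for VIM-2 (482 nm), imipenem for NDM-1 (300 nm). IC50 from initial velocities, triplicates.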

VIM-2 = target: T2, VIM-2 (Escherichia coli, UniProt Q5U7L7); assay: Dose rate inhibition studies for IC50 determination, VIM-2 enzymatic assay; format: biochemical; settings: Enzyme IC50 VIM-2, 0.1 nM VIM-2, 100 μM ZnCl2, nitrocefin substrate, inhibitor 0-800 μM, 3 parallel measurements; N.I. = no enzyme inhibitory activity observed
T2 construct: made in house
Procedure, shortened: as §1

15N-labelled NDM-1 = target: T3, 15N-labelled NDM-1 (Klebsiella pneumoniae, UniProt C7C422); assay: 1H,15N HSQC NMR chemical shift perturbation titration, NDM-1; format: binding
T3 construct: made in house
T3 sequence (C7C422 29-270 limits assumed): as above
Procedure: (§2) Solution NMR spectroscopy is a powerful tool to assess protein–ligand interactions under close to physiological conditions.[47] We, therefore, performed NMR chemical shift perturbation (CSP, for details, see section S8, ESI ^†) experiments to identify the amino acid residues of NDM-1 and VIM-2 that are involved in inhibitor binding, making use of the previously published protein assignments.[48,49] Titrations were conducted using ^15N-labelled proteins with 0, 0.5, 1, 2, 4, 8, and 16 equiv. of 5 inhibitors for NDM-1 and of 7 inhibitors for VIM-2.
(§3) For the titrations, ^15N-labelled NDM-1 and ^15N-labelled VIM-2 (250 μM), and titrated ligands (0.5 equiv. in 1 μL) were prepared in the same buffer as the protein (20 mM KPO4, 0.1 mM ZnCl2, pH 7.0 with 10% D2O and 2.5% DMSO-d6). ^1H,^15N HSQC spectra were acquired with 128 × 1024 complex points (F1 × F2) and spectral width of 9090 × 2740 Hz on ^15N-labeled NDM-1/VIM-2 and with every titration step up to 1 : 16 ratio between protein : ligand (0, 0.5, 1, 2, 4, 8, and 16 equiv. of ligand). All experiments were recorded on a Bruker 600 MHz spectrometer at 310 K equipped with a 5 mm TCI cryogenic probe. The NMR data were processed on the MestReNova software with the Mnova Binding plugin. The weighted average chemical shift perturbations (CSP) for the backbone amides were calculated from the observed chemical shift differences in the proton and nitrogen dimensions using the equation (chemical shift scaling factors: FH = 1, FN = 0.156) CSP = Δδ1H,15N = [drawing 13] .
(§4) 7. Chemical shift perturbation histograms
(§5) Chemical shift perturbation was calculated according equation (1) 2
(§6) CSP = Δδ(1H,15N) = √(Δδ1H2 + (1⁄R × Δδ15N2) Rscale = 6.5 (1)
(§7) Where Δδ1H is the chemical shift change for proton dimension, Δδ15N is the chemical shift change for nitrogen dimension, Rscale is a
(§8) The chemical shift perturbations (CSP) were classified as significant (SSP) when the observed Δδ(1H,15N) was greater than the population
(§9) mean plus the standard deviation (µ+1σ) – solid line; (µ+2σ) – dashed line, and (µ+3σ) – dashed line.
(§10) Further on, Kd was calculated according: 3
(§11) ([P]+[L]+Kd)− √([P]+[L]+Kd)2−4[P][L]
(§12) ΔδmaxΔδobs = Δδmax 2[P] (2)
(§13) Where Kd is the dissociation constant, [P] and [L] are protein and ligand concentrations, respectively. Δδmax were estimated in
(§14) MestReNova by extrapolation of the obser ved chemical shift differences Δδobs.

15N-labelled VIM-2 = target: T4, 15N-labelled VIM-2 (Escherichia coli, UniProt Q5U7L7); assay: 1H,15N HSQC NMR chemical shift perturbation titration, VIM-2; format: binding; settings: VIM-2 Kd, 0-16 equiv. ligand, pH 7.0, 310 K
T4 construct: made in house
Procedure: as §2, §3, §4, §5, §6, §7, §8, §9, §10, §11, §12, §13, §14

## O=C(NC(C1CCCCN1)P(=O)(O)O)c1ccsc1 (centres unmarked) [Compound 5c-1, (Piperidin-2-yl(thiophene-3-carboxamido)methyl)phos-phonic acid hydrochloride]
NDM-1
  IC50: 0.219 ± 0.014 mM
VIM-2
  IC50: 0.033 ± 0.003 mM
15N-labelled NDM-1; Estimated binding constant (Kd), residue 070F, Table S5, per-residue fit, NDM-1 070F
  Kd: 15.2 mM
15N-labelled NDM-1; Estimated binding constant (Kd), residue 091T, Table S5, per-residue fit, NDM-1 091T
  Kd: 4.17 mM
15N-labelled NDM-1; Estimated binding constant (Kd), residue 108E, Table S5, per-residue fit, NDM-1 108E
  Kd: 4.5 mM
15N-labelled NDM-1; Estimated binding constant (Kd), residue 119T, Table S5, per-residue fit, NDM-1 119T
  Kd: 10.7 mM
15N-labelled NDM-1; Estimated binding constant (Kd), residue 123Q, Table S5, per-residue fit, NDM-1 123Q
  Kd: 1.69 mM
15N-labelled NDM-1; Estimated binding constant (Kd), residue 124D, Table S5, per-residue fit, NDM-1 124D
  Kd: 5.76 mM
15N-labelled NDM-1; Estimated binding constant (Kd), residue 127G, Table S5, per-residue fit, NDM-1 127G
  Kd: 10.8 mM
15N-labelled NDM-1; Estimated binding constant (Kd), residue 143A, Table S5, per-residue fit, NDM-1 143A
  Kd: 8.49 mM
15N-labelled NDM-1; Estimated binding constant (Kd), residue 149A, Table S5, per-residue fit, NDM-1 149A
  Kd: 1.76 mM
15N-labelled NDM-1; Estimated binding constant (Kd), residue 152E, Table S5, per-residue fit, NDM-1 152E
  Kd: 3.85 mM
15N-labelled NDM-1; Estimated binding constant (Kd), residue 159H, Table S5, per-residue fit, NDM-1 159H
  Kd: 11.7 mM
15N-labelled NDM-1; Estimated binding constant (Kd), residue 160S, Table S5, per-residue fit, NDM-1 160S
  Kd: 5.4 mM
15N-labelled NDM-1; Estimated binding constant (Kd), residue 188G, Table S5, per-residue fit, NDM-1 188G
  Kd: 15.8 mM
15N-labelled NDM-1; Estimated binding constant (Kd), residue 191S, Table S5, per-residue fit, NDM-1 191S
  Kd: 0.48 mM
15N-labelled NDM-1; Estimated binding constant (Kd), residue 194I, Table S5, per-residue fit, NDM-1 194I
  Kd: 6.26 mM
15N-labelled NDM-1; Estimated binding constant (Kd), residue 197G, Table S5, per-residue fit, NDM-1 197G
  Kd: 1.51 mM
15N-labelled NDM-1; Estimated binding constant (Kd), residue 205F, Table S5, per-residue fit, NDM-1 205F
  Kd: 3.19 mM
15N-labelled NDM-1; Estimated binding constant (Kd), residue 206G, Table S5, per-residue fit, NDM-1 206G
  Kd: 3.95 mM
15N-labelled NDM-1; Estimated binding constant (Kd), residue 211K, Table S5, per-residue fit, NDM-1 211K
  Kd: 10 mM
15N-labelled NDM-1; Estimated binding constant (Kd), residue 213S, Table S5, per-residue fit, NDM-1 213S
  Kd: 9.53 mM
15N-labelled NDM-1; Estimated binding constant (Kd), residue 214K, Table S5, per-residue fit, NDM-1 214K
  Kd: 6.4 mM
15N-labelled NDM-1; Estimated binding constant (Kd), residue 217S, Table S5, per-residue fit, NDM-1 217S
  Kd: 11.8 mM
15N-labelled NDM-1; Estimated binding constant (Kd), residue 228H, Table S5, per-residue fit, NDM-1 228H
  Kd: 17.9 mM
15N-labelled NDM-1; Estimated binding constant (Kd), residue 229Y, Table S5, per-residue fit, NDM-1 229Y
  Kd: 6.74 mM
15N-labelled NDM-1; Estimated binding constant (Kd), residue 230A, Table S5, per-residue fit, NDM-1 230A
  Kd: 11.5 mM
15N-labelled NDM-1; Estimated binding constant (Kd), residue 232S, Table S5, per-residue fit, NDM-1 232S
  Kd: 10.2 mM
15N-labelled NDM-1; Estimated binding constant (Kd), residue 248M, Table S5, per-residue fit, NDM-1 248M
  Kd: 36.6 mM
15N-labelled NDM-1; Estimated binding constant (Kd), residue 249S, Table S5, per-residue fit, NDM-1 249S
  Kd: 4.15 mM
15N-labelled NDM-1; Estimated binding constant (Kd), residue 251S, Table S5, per-residue fit, NDM-1 251S
  Kd: 15.4 mM
15N-labelled NDM-1; Estimated binding constant (Kd), residue 254D, Table S5, per-residue fit, NDM-1 254D
  Kd: 5.56 mM
15N-labelled NDM-1; Estimated binding constant (Kd), residue 255S, Table S5, per-residue fit, NDM-1 255S
  Kd: 10.6 mM
15N-labelled NDM-1; NDM-1 Kd, NMR chemical shift perturbation, 0-16 equiv. ligand, pH 7.0, 310 K
  Kd: 3.1 ± 0.3 mM
15N-labelled VIM-2
  Kd: 0.4 ± 0.03 mM
